Literature values as cited in US20260009079A1, “BIOMARKERS OF PREGNANCY LOSS” (The University of Warwick, priority 2022, published 2026).

Tested on: bone marrow-derived MSCs
Conditions: given over 3 menstrual cycles; previously reported (Tewary et al., 2020)

Q: With `N[C@@H](CC(=O)N1CCn2c(nnc2C(F)(F)F)C1)Cc1cc(F)c(F)cc1F` [sitagliptin] as the molecule, how does the “recruitment of bone marrow-derived MSCs” value read?
A: Its value is “increases”.
